# Data as given in patent US12503484B2, “Androstane derivatives with activity as pure or predominantly pure stimulators of SERCA2a for the treatment of heart failure” (Seismic Pharmaceuticals, priority 2019, dated 2025).
# Structures can show the parent of a compound that is named as a salt.
# Legend:
# [1] = target: Progesterone PR-B (Homo sapiens (Human), UniProt P06401); experiment: Receptor binding assay panel: Progesterone PR-B
# [2] = Acute toxicity in the mouse; conditions: Albino Swiss CD-1, in vivo
# Method: The acute toxicity of the tested compound CVie214-salt and CVie216-salt have been determined in the mouse (Albino Swiss CD-1, body weight 30 g). Compounds have been orally administered or intravenously injected at increasing doses to identify the dose causing 50% mortality. Mortality occurred within 30 min after the administration and survival after 24 h.
# As comparison, the acute toxicity for the reference compounds Digoxin and Istaroxime were also included. Digoxin refers to literature data (www.lookchem.com, Reference for Digoxin intravenous: Afifi A M, Ammar E M. Pharmacological Research Communications. Vol. 6, Pg. 417, 1974; Reference for Digoxin oral: Archives Internationales de Pharmacodynamie et de Therapie. Vol. 153, Pg. 436, 1965) (Table 3).
# [3] = target: Ryanodine RyR3 (Rattus norvegicus, UniProt A0ABK0LPH6); experiment: Receptor binding assay panel: Ryanodine RyR3
# [4] = system: GABAA, Muscimol, Central; experiment: Receptor binding assay panel: GABAA, Muscimol, Central; set-up: species or system rat; conditions: 10 μM
# Method: (§1) Radioligand binding to a panel of receptors was carried out by Eurofins on crude membrane preparations according to published procedures and by using appropriate reference standard (Eurofin, Taiwan, compound code CVie216-3 (1226840), study #TW04-0004235, quote #TW04-0004235-Q04, for Cvie Therapeutics Limited, Taiwan). […] was tested at the concentration of 10 μM.
# [5] = system: panel of receptors; experiment: Radioligand binding to a panel of receptors (Eurofins); conditions: 10 μM
# [6] = target: Adrenergic α2A (Homo sapiens (Human), UniProt P08913); experiment: Receptor binding assay panel: Adrenergic α2A
# Adrenergic α2A, sequence (P08913 whole entry): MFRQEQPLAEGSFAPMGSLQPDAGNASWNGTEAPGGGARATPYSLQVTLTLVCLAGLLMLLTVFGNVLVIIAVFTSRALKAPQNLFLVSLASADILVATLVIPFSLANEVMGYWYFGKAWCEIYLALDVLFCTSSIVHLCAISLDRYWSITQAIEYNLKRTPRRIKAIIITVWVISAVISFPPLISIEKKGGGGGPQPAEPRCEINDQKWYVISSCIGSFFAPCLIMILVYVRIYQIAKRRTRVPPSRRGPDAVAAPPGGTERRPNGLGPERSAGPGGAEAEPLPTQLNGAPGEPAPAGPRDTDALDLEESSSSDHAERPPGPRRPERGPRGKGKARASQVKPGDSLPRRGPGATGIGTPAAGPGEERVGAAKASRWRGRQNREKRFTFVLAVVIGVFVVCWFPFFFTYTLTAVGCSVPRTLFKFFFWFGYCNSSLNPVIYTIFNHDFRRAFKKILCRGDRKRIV
# Method: as §1
# [7] = target: Glucocorticoid (Homo sapiens (Human), UniProt P04150); experiment: Receptor binding assay panel: Glucocorticoid
# Glucocorticoid, sequence (P04150 whole entry): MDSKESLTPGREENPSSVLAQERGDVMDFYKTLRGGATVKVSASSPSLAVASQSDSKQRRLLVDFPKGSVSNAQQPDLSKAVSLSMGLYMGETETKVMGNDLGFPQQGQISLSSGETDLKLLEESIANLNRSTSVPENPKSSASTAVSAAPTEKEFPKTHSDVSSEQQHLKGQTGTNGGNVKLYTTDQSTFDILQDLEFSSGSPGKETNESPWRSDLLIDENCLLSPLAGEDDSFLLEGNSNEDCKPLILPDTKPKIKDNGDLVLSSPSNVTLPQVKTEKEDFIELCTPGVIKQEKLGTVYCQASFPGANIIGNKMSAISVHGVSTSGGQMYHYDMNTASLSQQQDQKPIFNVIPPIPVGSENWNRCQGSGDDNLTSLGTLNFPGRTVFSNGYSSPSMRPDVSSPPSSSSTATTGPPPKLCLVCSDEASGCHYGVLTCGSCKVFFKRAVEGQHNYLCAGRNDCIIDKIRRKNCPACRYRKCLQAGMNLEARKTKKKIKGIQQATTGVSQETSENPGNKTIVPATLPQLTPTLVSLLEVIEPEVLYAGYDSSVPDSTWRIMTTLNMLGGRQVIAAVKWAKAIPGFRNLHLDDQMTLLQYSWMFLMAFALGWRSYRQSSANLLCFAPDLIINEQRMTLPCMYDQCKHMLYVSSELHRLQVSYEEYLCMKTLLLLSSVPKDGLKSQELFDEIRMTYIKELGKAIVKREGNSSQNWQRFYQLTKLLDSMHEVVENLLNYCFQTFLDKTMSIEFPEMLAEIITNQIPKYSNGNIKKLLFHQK
# [8] = target: Angiotensin AT2 (Homo sapiens (Human), UniProt P50052); experiment: Receptor binding assay panel: Angiotensin AT2
# Angiotensin AT2, sequence (P50052 whole entry): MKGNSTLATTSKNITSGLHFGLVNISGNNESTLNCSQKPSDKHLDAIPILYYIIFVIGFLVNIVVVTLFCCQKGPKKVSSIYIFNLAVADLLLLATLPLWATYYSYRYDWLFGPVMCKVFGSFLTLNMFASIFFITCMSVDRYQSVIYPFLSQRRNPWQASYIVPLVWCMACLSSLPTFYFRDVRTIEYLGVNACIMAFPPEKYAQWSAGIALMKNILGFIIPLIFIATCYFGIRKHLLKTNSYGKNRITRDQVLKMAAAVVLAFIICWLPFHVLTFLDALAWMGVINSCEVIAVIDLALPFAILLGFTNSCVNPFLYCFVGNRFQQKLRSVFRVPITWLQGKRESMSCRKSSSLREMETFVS
# [9] = target: Monoamine Oxidase MAO-B (Homo sapiens (Human), UniProt P27338); experiment: Receptor binding assay panel: Monoamine Oxidase MAO-B; assay type: biochemical
# Monoamine Oxidase MAO-B, sequence (P27338 whole entry): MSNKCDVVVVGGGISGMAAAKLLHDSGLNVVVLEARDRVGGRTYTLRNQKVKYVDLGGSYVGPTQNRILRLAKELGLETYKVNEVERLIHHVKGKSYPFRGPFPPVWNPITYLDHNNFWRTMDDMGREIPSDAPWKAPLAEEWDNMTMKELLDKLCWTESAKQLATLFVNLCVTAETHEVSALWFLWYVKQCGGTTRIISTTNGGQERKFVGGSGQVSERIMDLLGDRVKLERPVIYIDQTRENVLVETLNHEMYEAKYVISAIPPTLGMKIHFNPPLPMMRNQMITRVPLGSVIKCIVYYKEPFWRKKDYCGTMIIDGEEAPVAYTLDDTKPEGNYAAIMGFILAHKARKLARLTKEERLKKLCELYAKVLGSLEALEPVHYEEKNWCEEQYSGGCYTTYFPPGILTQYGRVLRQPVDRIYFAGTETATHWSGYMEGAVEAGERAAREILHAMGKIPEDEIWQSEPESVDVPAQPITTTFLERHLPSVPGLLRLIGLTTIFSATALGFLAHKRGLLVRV
# [10] = system: ATPase, Ca2+, skeletal muscle; experiment: Receptor binding assay panel: ATPase, Ca2+, skeletal muscle; assay type: biochemical, pig; conditions: 10 μM
# Method: as §1
# [11] = system: STZ diabetic rats; experiment: Haemodynamics in streptozotocin diabetic rats (echocardiography); assay type: in vivo, rat
# Method: CVie214 and CVie216 were tested in a diabetic rat model. Briefly, rats were injected with streptozotocin (STZ). After 7-9 weeks from STZ injection, rats were submitted to transthoracic echocardiographic and Doppler evaluation performed under urethane anesthesia. Two-dimensionally guided M-mode recordings were used to obtain short-axis measurements of left ventricular end-diastolic diameter (LVEDD), left ventricular end-systolic diameter (LVESD), posterior (PW) and septal (SW) diastolic wall thickness according to the American Society of Echocardiography guidelines (Lang R M et al., Eur J Echocardiography 2006, 7:79-108). Fractional shortening was calculated as FS=(LVEDD−LVESD)/LVEDD. Relative wall thickness was calculated as PWTd+IVSTd/LVEDD. Mitral inflow was measured by pulsed Doppler at the tips of mitral leaflets from an apical 4-chamber view to obtain early and late filling velocities (E, A) and deceleration time of early filling velocity (DT). The deceleration slope was calculated as E/DT ratio. The mitral deceleration index was calculated as DT/E ratio. Tissue Doppler Imaging (TDI) was evaluated from the apical 4-chamber view to record septal mitral annular movements, i.e., peak myocardial systolic (s′) and early and late diastolic velocity (e′ and a′).
# After baseline hemodynamic measurements were taken, the rats were administered Digoxin, CVie214, CVie216 and compared to control. Digoxin, used as reference drug, was intravenously infused at 0.11 mg/kg/min for 15 min and echocardiographic parameters measured after 1 h. CVie214-salt and CVie216-salt were intravenously infused in STZ diabetic rats at 0.2 mg/kg/min and echocardiographic parameters were measured after 15 min and 30 min.
# Tables 4-6 show the haemodynamic parameters in STZ diabetic rats for Digoxin, CVie214-salt, and Cvie216-salt.
# [12] = target: hERG potassium channel (Homo sapiens (Human), UniProt Q12809); experiment: Receptor binding assay panel: Potassium Channel hERG; conditions: crude membrane preparations
# Method: as §1
# [13] = target: Protein Tyrosine Kinase, ABL1 (Homo sapiens (Human), UniProt P00519); experiment: Receptor binding assay panel: Protein Tyrosine Kinase, ABL1; assay type: biochemical
# Protein Tyrosine Kinase, ABL1, sequence (P00519 whole entry): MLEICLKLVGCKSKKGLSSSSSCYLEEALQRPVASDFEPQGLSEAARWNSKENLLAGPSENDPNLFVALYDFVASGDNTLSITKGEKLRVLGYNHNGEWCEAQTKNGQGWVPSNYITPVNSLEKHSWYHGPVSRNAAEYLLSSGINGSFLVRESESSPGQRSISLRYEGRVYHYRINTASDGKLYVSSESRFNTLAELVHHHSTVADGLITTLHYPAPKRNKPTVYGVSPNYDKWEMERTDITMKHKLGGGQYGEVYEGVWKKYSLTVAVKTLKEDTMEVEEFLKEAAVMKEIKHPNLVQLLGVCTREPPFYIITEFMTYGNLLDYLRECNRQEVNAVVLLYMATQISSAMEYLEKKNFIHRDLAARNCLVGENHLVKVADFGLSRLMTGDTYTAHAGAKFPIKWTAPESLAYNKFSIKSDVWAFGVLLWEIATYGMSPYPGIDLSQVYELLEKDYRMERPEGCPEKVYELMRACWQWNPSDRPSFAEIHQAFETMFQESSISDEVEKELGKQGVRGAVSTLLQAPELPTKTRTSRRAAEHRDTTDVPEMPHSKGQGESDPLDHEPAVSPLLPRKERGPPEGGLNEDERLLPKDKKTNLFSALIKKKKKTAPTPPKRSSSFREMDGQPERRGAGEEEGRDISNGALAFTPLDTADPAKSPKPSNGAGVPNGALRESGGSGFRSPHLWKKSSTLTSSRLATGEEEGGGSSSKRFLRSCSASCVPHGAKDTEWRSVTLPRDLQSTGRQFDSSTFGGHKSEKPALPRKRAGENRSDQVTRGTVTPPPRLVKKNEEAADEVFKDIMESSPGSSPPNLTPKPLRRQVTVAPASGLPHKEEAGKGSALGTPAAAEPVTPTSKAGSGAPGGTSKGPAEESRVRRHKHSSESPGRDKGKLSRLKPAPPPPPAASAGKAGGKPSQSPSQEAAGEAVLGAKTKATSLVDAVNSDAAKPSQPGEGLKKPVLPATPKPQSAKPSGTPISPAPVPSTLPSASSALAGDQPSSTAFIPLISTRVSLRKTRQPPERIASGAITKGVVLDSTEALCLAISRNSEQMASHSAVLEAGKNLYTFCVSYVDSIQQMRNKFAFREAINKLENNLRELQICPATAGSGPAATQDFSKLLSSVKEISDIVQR
# [14] = target: Adrenergic β2 (Homo sapiens (Human), UniProt P07550); experiment: Receptor binding assay panel: Adrenergic β2
# Adrenergic β2, sequence (P07550 whole entry): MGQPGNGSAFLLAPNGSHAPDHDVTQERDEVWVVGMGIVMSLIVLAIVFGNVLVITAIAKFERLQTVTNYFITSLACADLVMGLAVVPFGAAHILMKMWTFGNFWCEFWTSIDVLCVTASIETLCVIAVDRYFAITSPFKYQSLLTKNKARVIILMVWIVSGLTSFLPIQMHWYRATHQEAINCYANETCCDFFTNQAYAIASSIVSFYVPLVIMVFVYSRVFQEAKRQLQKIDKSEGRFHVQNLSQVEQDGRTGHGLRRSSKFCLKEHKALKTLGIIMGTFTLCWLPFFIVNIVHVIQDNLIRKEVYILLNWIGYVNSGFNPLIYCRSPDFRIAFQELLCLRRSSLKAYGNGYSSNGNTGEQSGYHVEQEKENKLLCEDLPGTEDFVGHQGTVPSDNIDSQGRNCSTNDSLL
# [15] = target: Opiate μ (OP3, MOP) (Homo sapiens (Human), UniProt P35372); experiment: Receptor binding assay panel: Opiate μ (OP3, MOP)
# Method: as §1
# [16] = after 15 min IV infusion 0.2 mg/kg/min
# [17] = after 30 min IV infusion 0.2 mg/kg/min
# Progesterone PR-B, sequence (P06401 whole entry): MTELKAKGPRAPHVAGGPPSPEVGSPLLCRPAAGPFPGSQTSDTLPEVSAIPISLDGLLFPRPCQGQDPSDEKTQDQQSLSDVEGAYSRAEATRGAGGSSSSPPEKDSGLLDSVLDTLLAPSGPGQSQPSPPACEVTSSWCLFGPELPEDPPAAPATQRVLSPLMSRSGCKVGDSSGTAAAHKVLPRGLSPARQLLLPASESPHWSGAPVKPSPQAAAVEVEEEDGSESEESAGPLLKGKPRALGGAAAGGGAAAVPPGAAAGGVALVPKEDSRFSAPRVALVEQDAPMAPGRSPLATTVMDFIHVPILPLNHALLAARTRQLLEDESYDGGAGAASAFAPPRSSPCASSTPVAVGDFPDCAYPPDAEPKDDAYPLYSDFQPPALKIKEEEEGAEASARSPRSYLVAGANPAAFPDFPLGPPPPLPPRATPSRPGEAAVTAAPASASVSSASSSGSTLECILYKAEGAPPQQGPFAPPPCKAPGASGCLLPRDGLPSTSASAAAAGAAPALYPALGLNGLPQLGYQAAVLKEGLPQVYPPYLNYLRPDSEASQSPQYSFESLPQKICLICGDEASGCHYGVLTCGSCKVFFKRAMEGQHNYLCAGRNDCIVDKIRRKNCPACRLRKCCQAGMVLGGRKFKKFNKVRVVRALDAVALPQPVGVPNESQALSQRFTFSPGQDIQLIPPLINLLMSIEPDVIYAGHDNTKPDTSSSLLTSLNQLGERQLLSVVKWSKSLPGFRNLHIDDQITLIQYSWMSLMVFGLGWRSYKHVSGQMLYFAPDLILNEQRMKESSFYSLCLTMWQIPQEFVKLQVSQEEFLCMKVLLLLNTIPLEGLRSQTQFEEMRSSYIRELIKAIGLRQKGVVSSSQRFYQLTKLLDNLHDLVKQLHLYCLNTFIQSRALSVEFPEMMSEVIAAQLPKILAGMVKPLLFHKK
smiles,measurement,setting,value
"C[C@]12CC[C@H](CC(=O)O)CC1C(O)CC1C2CC[C@]2(C)C(=O)CCC12 (stereo in doubt) [CVie216-salt, 2-(6beta-hydroxy-17-oxoandrostane-3-yl) acetic acid]",inhibition at 10 µM,[1],1%
same,LD50 at 24 h,[2]; iv,> 300 mg/kg
same,LD50 at 24 h,"[2]; oral, os",> 700 mg/kg
same,inhibition at 10 µM,[3],-10%
same,% inhib,[4],2%
same,interaction on a panel of receptors (in words),[5],No significant interaction
same,inhibition at 10 µM,[6],-2%
same,inhibition at 10 µM,[7],-9%
same,inhibition at 10 µM,[8],-6%
same,inhibition at 10 µM,[9],-2%
same,% inhib,[10],−1%
same,diastolic function (in words),[11]; IV infusion,ameliorated diastolic function
same,"overall cardiac function, SV and CO (in words)",[11]; IV infusion,improvement
same,A late filling velocity of mitral inflow,[11]; [16],0.66 ± 0.17 m/s
same,CO cardiac output,[11]; [16],165.45 ± 30.9 mL/min
same,DT deceleration time of E wave,[11]; [16],49.72 ± 12.56 ms
same,DT/E mitral deceleration index,[11]; [16],56.52 ± 16.45 s2/m
same,E early filling velocity of mitral inflow,[11]; [16],0.90 ± 0.13 m/s
same,E/A index of LV function,[11]; [16],1.42 ± 0.28
same,E/DT deceleration slope,[11]; [16],19.76 ± 8.27 m/s2
same,E/e′ index of LV filling pressure,[11]; [16],39.08 ± 5.04
same,FS fractional shortening,[11]; [16],56.29 ± 9.95%
same,HR heart rate,[11]; [16],221 ± 50 beat/min
same,SV stroke volume,[11]; [16],0.76 ± 0.12 ml/beat
same,a′ TDI late relaxation velocity,[11]; [16],25.85 ± 6.98 cm/s
same,e′ TDI early relaxation velocity,[11]; [16],23.1 ± 1.96 cm/s
same,s′ TDI contraction velocity,[11]; [16],22.47 ± 2.45 cm/s
same,A late filling velocity of mitral inflow,[11]; [17],0.68 ± 0.15 m/s
same,CO cardiac output,[11]; [17],181.82 ± 23.75 mL/min
same,DT deceleration time of E wave,[11]; [17],47.46 ± 10.17 ms
same,DT/E mitral deceleration index,[11]; [17],54.8 ± 12.84 s2/m
same,E early filling velocity of mitral inflow,[11]; [17],0.87 ± 0.09 m/s
same,E/A index of LV function,[11]; [17],1.34 ± 0.27
same,E/DT deceleration slope,[11]; [17],19.38 ± 5.39 m/s2
same,E/e′ index of LV filling pressure,[11]; [17],significantly reduced
same,FS fractional shortening,[11]; [17],55.19 ± 7.32%
same,HR heart rate,[11]; [17],225 ± 50 beat/min
same,SV stroke volume,[11]; [17],0.83 ± 0.15 ml/beat
same,a′ TDI late relaxation velocity,[11]; [17],26.66 ± 6.94 cm/s
same,e′ TDI early relaxation velocity,[11]; [17],24.48 ± 2.1 cm/s
same,s′ TDI contraction velocity,[11]; [17],22.68 ± 3.18 cm/s
same,inhibition at 10 µM,[12],0%
same,inhibition at 10 µM,[13],13%
same,inhibition at 10 µM,[14],-6%
same,inhibition at 10 µM,[15],11%
